Measured values: patent US20250353858A1, “CONDENSED HETEROCYCLIC COMPOUNDS AS INHIBITOR OF DIACYLGLYCEROL KINASES” (BEONE MEDICINES I GMBH, priority 2023, published 2025)

Legend:
[1] = target: DGKζ (Homo sapiens (Human), UniProt Q13574); assay: Biochemical DGK IC50 assay (ADP-Glo, lipid micelle substrate), DGKζ; details: full length DGKζ 0.5 nM, ATP 140 μM, DAG 80 μM
Procedure: (§1) Enzymatic reactions of DGKζ, DGKα and DGKδ were performed using ADP-Glo assay with lipid micelle substrate. […] Full length DGKα (D21-10BG, SignalChem) and full length DGKδ (D23-10G, SignalChem) were purchased. Lipid micelle was prepared by dissolving DAG (Sigma, 317505-10MG) and PS (Sigma, P7769-100MG) with chloroform which was furtherly removed by rotary evaporation. The resulted product was resuspended in buffer containing 25 mM HEPES pH 7.0, 0.5 mM EDTA and 160 mM Octyl β-D glucopyranoside by vigorous mixing and ultrasonic (IID, Scientz).
(§2) The inhibition activities testing for the compound disclosed herein were carried out at room temperature in assay buffer containing 50 mM HEPES, 10 mM MgCl2, 0.01% BSA, 0.1 mM Na3VO4, 0.005% Tween-20 and 0.01 mM CaCl2. Compounds in DMSO were dispensed into wells of a black 384 well plate (Corning 4514) using D300e digital dispenser (Tecan). […] 3 μL 2× enzyme solution was added to wells. […] After 1 hour reaction, 5 μL ADP-Glo reagent (Promga V9101) was added and incubated for 40 minutes. 10 μL Kinase Detection reagent was added and incubated for 30 minutes. Luminescence was measured on a microplate reader (PHERAstar FSX, BMG labtech). The IC50s are calculated based on inhibition of enzyme activity in the presence of increasing concentrations of compounds.
Human His-TEV-DGK-zeta-pFastBac1 and human baculovirus samples was generated using the Bac-to-Bac baculovirus expression system (Invitrogen) according to the manufacturer's protocol. The DNA used for expression of DGK-zeta, have SEQ ID Nos: 1. Baculovirus amplification was achieved using infected SF9 cells at 1:2000 virus/cells ratios, and grown for 96 hours at 27° C. post-transfected.
Full length human DGKζ produced as described above, was purified from Sf9 baculovirus-infected insect cell paste. The cells were lysed using sonication method, and the lysates were clarified by centrifugation.

[2] = target: DGKα (Homo sapiens (Human), UniProt P23743); assay: Biochemical DGK IC50 assay (ADP-Glo, lipid micelle substrate), DGKα; details: full length DGKα […], ATP 140 μM, DAG 80 μM; note: full length DGKα 7.5 nM
Procedure: as §1, §2

Chain of DGKζ (Q13574 other isoform, or with tags, fused parts or gaps): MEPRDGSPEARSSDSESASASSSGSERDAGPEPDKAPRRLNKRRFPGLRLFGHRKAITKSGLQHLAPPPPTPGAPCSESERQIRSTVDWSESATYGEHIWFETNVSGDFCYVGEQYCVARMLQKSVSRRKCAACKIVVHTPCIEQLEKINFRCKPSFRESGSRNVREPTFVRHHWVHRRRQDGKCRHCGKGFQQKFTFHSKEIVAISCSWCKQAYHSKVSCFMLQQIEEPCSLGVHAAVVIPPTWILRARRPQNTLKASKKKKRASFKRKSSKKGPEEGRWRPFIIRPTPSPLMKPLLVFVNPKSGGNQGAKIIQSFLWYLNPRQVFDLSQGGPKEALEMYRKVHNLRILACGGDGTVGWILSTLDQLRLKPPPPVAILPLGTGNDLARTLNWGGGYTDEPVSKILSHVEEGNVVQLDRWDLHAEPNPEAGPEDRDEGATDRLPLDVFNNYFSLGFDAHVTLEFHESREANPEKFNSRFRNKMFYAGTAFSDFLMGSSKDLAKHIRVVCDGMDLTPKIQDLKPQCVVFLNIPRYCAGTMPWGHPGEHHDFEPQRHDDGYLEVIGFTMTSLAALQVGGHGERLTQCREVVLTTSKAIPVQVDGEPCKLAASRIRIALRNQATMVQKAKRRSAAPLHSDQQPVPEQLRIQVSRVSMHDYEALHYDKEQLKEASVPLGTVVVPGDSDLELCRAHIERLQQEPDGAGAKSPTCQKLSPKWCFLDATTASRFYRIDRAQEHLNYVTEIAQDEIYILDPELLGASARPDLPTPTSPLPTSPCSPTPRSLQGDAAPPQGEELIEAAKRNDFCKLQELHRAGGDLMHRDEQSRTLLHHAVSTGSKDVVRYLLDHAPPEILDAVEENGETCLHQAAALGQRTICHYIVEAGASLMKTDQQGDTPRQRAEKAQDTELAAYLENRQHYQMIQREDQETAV
Chain of DGKα (P23743 whole entry): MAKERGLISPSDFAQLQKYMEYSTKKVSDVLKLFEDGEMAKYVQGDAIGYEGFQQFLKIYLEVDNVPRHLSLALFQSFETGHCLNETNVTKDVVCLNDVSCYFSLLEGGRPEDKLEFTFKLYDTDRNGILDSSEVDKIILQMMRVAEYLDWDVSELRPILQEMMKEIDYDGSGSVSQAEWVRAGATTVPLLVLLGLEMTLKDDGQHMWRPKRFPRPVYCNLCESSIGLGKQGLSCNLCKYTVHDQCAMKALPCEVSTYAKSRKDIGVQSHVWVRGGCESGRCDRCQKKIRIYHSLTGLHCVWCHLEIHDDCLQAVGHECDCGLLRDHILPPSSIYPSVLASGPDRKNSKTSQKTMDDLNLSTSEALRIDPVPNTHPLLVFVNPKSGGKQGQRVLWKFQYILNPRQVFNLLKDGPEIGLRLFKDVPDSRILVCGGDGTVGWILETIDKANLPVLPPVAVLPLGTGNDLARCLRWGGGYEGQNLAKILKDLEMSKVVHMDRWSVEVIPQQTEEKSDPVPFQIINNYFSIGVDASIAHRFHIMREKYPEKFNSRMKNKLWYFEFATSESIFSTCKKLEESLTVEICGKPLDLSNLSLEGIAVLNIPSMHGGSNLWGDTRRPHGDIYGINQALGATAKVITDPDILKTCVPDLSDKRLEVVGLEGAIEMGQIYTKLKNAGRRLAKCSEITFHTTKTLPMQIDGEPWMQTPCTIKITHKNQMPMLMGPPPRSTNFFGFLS

| IC50 [1] | IC50 [2] | Compound |
| --- | --- | --- |
| 100 nM | 27800 nM | CC[C@H]1CN(C(C)c2ccc(F)cc2OC)[C@H](CC)CN1c1cc(=O)n(C)c2cc(CC#N)nn12 (stereo partly drawn) [Compound A16, 2-(7-((2S,5R)-2,5-diethyl-4-(1-(4-fluoro-2-methoxyphenyl)ethyl)piperazin-1-yl)-4-methyl-5-oxo-4,5-dihydropyrazolo[1,5-a]pyrimidin-2-yl)acetonitrile] |
| 1710 nM | > 10000 nM | CC(c1ccc2nccnc2c1)N1C[C@H](C)N(c2cc(=O)n(C)c3cc(CC#N)nn23)C[C@H]1C (single isomer, unassigned) [Compound A2a] |
| 23 nM | 16900 nM | COc1cnc2ccc(C(C)N3C[C@H](C)N(c4cc(=O)n(C)c5cc(CC#N)nn45)C[C@H]3C)cc2n1 (stereo partly drawn) [Compound A7, 2-(7-((2S,5R)-4-(1-(3-methoxyquinoxalin-6-yl)ethyl)-2,5-dimethylpiperazin-1-yl)-4-methyl-5-oxo-4,5-dihydropyrazolo[1,5-a]pyrimidin-2-yl)acetonitrile] |
| 32 nM | 6050 nM | CC(c1ccc2nccnc2c1)N1C[C@H](C)N(c2cc(=O)n(C)c3cc(CC#N)nn23)C[C@H]1C (single isomer, unassigned) [Compound A2b] |
| 50 nM | 3120 nM | CC(c1ccc2nccnc2c1)N1C[C@H](C)N(c2cc(=O)n(C)c3cc(CC#N)nn23)C[C@H]1C (mixture of isomers) [Compound A2, 2-(7-((2S,5R)-2,5-dimethyl-4-(1-(quinoxalin-6-yl)ethyl)piperazin-1-yl)-4-methyl-5-oxo-4,5-dihydropyrazolo[1,5-a]pyrimidin-2-yl)acetonitrile] |
| 717 nM | 2940 nM | CC[C@H]1CN(C(C)c2ccc(C3CC3)cc2F)[C@H](CC)CN1c1cc(=O)n(C)c2cc(CC#N)nn12 (stereo partly drawn) [Compound A21, 2-(7-((2S,5R)-4-(1-(4-cyclopropyl-2-fluorophenyl)ethyl)-2,5-diethylpiperazin-1-yl)-4-methyl-5-oxo-4,5-dihydropyrazolo[1,5-a]pyrimidin-2-yl)acetonitrile] |
| 2220 nM | 1470 nM | CC[C@@H]1CN(c2cc(=O)n(C)c3cc(CC#N)nn23)[C@@H](C)CN1C(C)c1ccc2ncsc2c1 (single isomer, unassigned) [Compound A28b] |
| > 10000 nM | 5330 nM | CC[C@H]1CN(C(C)c2ccc3nc(C)c(F)n3n2)[C@H](CC)CN1c1nc(=O)n(C)c2cc(CC#N)nn12 (single isomer, unassigned) [Compound A48a] |
| 73 nM | 17 nM | CC[C@H]1CN(C(C)c2ccn3nc(F)cc3n2)[C@H](CC)CN1c1nc(=O)n(C)c2cc(CC#N)nn12 (stereo partly drawn) [Compound A56, 2-(4-((2S,5R)-2,5-diethyl-4-(1-(2-fluoropyrazolo[1,5-a]pyrimidin-5-yl)ethyl)piperazin-1-yl)-1-methyl-2-oxo-1,2-dihydropyrazolo[1,5-a][1,3,5]triazin-7-yl)acetonitrile] |
| 28 nM | 15700 nM | CC[C@H]1CN(C(C)c2ccc(F)cc2C(F)F)[C@H](CC)CN1c1cc(=O)n(C)c2cc(CC#N)nn12 (stereo partly drawn) [Compound A18, 2-(7-((2S,5R)-4-(1-(2-(difluoromethyl)-4-fluorophenyl)ethyl)-2,5-diethylpiperazin-1-yl)-4-methyl-5-oxo-4,5-dihydropyrazolo[1,5-a]pyrimidin-2-yl)acetonitrile] |
| 552 nM | 947 nM | CC[C@H]1CN(C(C)c2ccc3nc(C)sc3c2)[C@H](CC)CN1c1nc(=O)n(C)c2cc(CC#N)nn12 (single isomer, unassigned) [Compound A53b] |
| 53 nM | 10200 nM | CC(c1ccc2c(c1)OCCO2)N1C[C@H](C)N(c2cc(=O)n(C)c3cc(CC#N)nn23)C[C@H]1C (stereo partly drawn) [Compound A13, 2-(7-((2S,5R)-4-(1-(2,3-dihydrobenzo[b][1,4]dioxin-6-yl)ethyl)-2,5-dimethylpiperazin-1-yl)-4-methyl-5-oxo-4,5-dihydropyrazolo[1,5-a]pyrimidin-2-yl)acetonitrile] |
| 136 nM | 56700 nM | CC[C@H]1CN(C(C)c2ccc(F)cc2OC(F)F)[C@H](CC)CN1c1cc(=O)n(C)c2cc(CC#N)nn12 (stereo partly drawn) [Compound A17, 2-(7-((2S,5R)-4-(1-(2-(difluoromethoxy)-4-fluorophenyl)ethyl)-2,5-diethylpiperazin-1-yl)-4-methyl-5-oxo-4,5-dihydropyrazolo[1,5-a]pyrimidin-2-yl)acetonitrile] |
| 4560 nM | 1590 nM | CC[C@H]1CN(C(C)c2ccn3nc(F)cc3n2)[C@H](CC)CN1c1cc(=O)n(C)c2cc(CC#N)nn12 (single isomer, unassigned) [Compound A41b] |
| 83 nM | 24 nM | CC[C@H]1CN(C(C)c2ccc3cc(C(F)F)sc3n2)[C@H](CC)CN1c1cc(=O)n(C)c2cc(CC#N)nn12 (single isomer, unassigned) [Compound A37b] |
| 21 nM | 233 nM | CC[C@@H]1CN(c2cc(=O)n(C)c3cc(CC#N)nn23)[C@@H](C)CN1C(C)c1ccc2ncsc2c1 (single isomer, unassigned) [Compound A28a] |
| > 10000 nM | 585 nM | CC[C@H]1CN(C(C)c2ccn3nccc3n2)[C@H](CC)CN1c1cc(=O)n(C)c2cc(CC#N)nn12 (single isomer, unassigned) [Compound A39a] |
| 116 nM | 66 nM | CC[C@H]1CN(C(C)c2ccc3nc(C)cn3n2)[C@H](CC)CN1c1nc(=O)n(C)c2cc(CC#N)nn12 (single isomer, unassigned) [Compound A45b] |
| 4900 nM | 485 nM | CC[C@H]1CN(C(C)c2ccn3nc(C4CC4)cc3n2)[C@H](CC)CN1c1nc(=O)n(C)c2cc(CC#N)nn12 (single isomer, unassigned) [Compound A54a] |
| > 10000 nM | 1880 nM | CC[C@H]1CN(C(C)c2ccc3nc(C)cn3n2)[C@H](CC)CN1c1nc(=O)n(C)c2cc(CC#N)nn12 (single isomer, unassigned) [Compound A45a] |
| 1150 nM | 10400 nM | CC(c1ccc2c(c1)OC(C)(C)CO2)N1C[C@H](C)N(c2c(C#N)c(=O)n(C)c3cc(CC#N)nn23)C[C@H]1C (single isomer, unassigned) [Compound A12b] |
| 105 nM | 913 nM | CC[C@H]1CN(C(C)c2ccc(C3CC3)nc2)[C@H](CC)CN1c1cc(=O)n(C)c2cc(CC#N)nn12 (stereo partly drawn) [Compound A23, 2-(7-((2S,5R)-4(1-(6-cyclopropylpyridin-3-yl)ethyl)-2,5-diethylpiperazin-1-yl)-4-methyl-5-oxo-4,5-dihydropyrazolo[1,5-a]pyrimidin-2-yl)acetonitrile] |
| 266 nM | 267 nM | CCC(c1ccn2nc(C)cc2n1)N1C[C@H](C)N(c2cc(=O)n(C)c3cc(CC#N)nn23)C[C@H]1CC (stereo partly drawn) [Compound A43, 2-(7-((2S,5R)-5-ethyl-2-methyl-4-(1-(2-methylpyrazolo [1,5-a]pyrimidin-5-yl)propyl)piperazin-1-yl)-4-methyl-5-oxo-4,5-dihydropyrazolo [1,5-a]pyrimidin-2-yl)acetonitrile] |
| 38 nM | 55 nM | CC[C@H]1CN(C(C)c2ccn3ncc(F)c3n2)[C@H](CC)CN1c1nc(=O)n(C)c2cc(CC#N)nn12 (stereo partly drawn) [Compound A50, 2-(4-((2S,5R)-2,5-diethyl-4-(1-(3-fluoropyrazolo[1,5-a]pyrimidin-5-yl)ethyl)piperazin-1-yl)-1-methyl-2-oxo-1,2-dihydropyrazolo[1,5-a][1,3,5]triazin-7-yl)acetonitrile] |
